Measured values reported in publication PMC3328449, “Inhibition of Diacylglycerol–Sensitive TRPC Channels by Synthetic and Natural Steroids” (PLoS ONE, 2012).
Several values for one entry are separate records, joined by “and”; a condition that tells them apart may be missing. Equal values may be shown once.

Key:
A7r5 cells = experiment: Whole-cell patch clamp, AVP-induced receptor-operated cation currents in A7r5 cells; assay type: cell-based; settings: 10 µM, 100 nM AVP, measured at −70 mV, reversible, n = 8
Procedure: A7r5 cells (ATCC, Rockville, USA) were maintained in DMEM (with glutaMAX I, 4.5 g/l glucose and […] sodium pyruvate), supplemented with 10% (v/v) fetal bovine serum (PAA, Pasching, Austria).
The whole-cell patch clamp technique was employed to measure ion currents from single cells. Heat-polished patch pipettes with resistances of 2–4 MΩ were pulled from borosilicate glass capillaries (Hilgenberg, Malsfeld, Germany) using a DMZ-Universal puller (Zeitz-Instruments, Munich, Germany) and filled with standard intracellular solution containing: 120 mM CsOH, 120 mM gluconic acid, 2 mM MgCl2, 3 mM CaCl2, 5 mM Cs4-BAPTA, 10 mM HEPES (pH 7.4 adjusted with gluconic acid). For agonist-independent stimulation of TRPC currents the intracellular solution was supplemented with 30 µM AlCl3 and 10 mM NaF and cells were infused with AlF4 ^− through the patch pipette. AlF4 ^− is a non-specific activator of heterotrimeric G proteins that consequently leads to increased phospholipase C activity and TRPC channel activation. […]
Cells grown on poly-L-lysine-coated coverslips were continuously superfused with extracellular solution and substances were applied using an ALA BPS-8 perfusion system (ALA Scientific Instruments, Westbury, USA). […] Cells were held at −70 mV, and current-voltage (I–V) relationships were routinely measured every 2 or 3 s by applying voltage ramps (180 ms) from −100 mV to +80 mV. […]

hTRPC6 = target: T1, hTRPC6 (Homo sapiens, UniProt Q9Y210); experiment: OAG-induced Ca2+ entry, fluo-4 fluorometric imaging plate reader, TRPC6 HEK-FITR cells; assay type: cell-based; settings: for IC50: TRPC6 HEK-FITR cells, fluo-4, area under the curve, 10 min pre-incubation, read-out: IC50, inhibition of OAG-induced Ca2+ entry via TRPC6; for Hill slope n, inhibition of TRPC6-mediated Ca2+ entry: fit to Hill model
T1 construct: expressed in transfected cells
T1 sequence (Q9Y210 1-931): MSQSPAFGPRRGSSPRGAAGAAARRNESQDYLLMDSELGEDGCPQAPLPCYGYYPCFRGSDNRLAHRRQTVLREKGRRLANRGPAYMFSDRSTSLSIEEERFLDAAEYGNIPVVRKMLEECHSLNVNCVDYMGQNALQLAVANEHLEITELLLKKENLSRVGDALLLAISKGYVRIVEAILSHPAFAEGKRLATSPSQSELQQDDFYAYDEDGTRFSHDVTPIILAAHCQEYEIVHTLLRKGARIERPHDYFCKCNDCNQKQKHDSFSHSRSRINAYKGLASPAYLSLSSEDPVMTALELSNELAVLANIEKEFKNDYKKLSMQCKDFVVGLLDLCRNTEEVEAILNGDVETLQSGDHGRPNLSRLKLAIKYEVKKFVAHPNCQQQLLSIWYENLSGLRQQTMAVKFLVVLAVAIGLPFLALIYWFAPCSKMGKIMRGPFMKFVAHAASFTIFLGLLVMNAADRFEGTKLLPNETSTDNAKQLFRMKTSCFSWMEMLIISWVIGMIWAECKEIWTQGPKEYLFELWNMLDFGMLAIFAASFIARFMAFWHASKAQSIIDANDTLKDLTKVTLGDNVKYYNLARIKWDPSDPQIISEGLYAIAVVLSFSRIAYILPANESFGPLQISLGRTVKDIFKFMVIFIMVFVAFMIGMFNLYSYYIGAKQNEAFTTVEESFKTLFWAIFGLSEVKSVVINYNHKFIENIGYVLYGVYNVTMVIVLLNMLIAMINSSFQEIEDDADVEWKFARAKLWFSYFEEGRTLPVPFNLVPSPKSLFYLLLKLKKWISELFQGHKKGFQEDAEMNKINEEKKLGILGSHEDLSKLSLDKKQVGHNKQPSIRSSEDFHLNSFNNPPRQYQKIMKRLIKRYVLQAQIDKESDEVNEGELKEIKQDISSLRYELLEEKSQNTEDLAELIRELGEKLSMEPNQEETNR
Procedure: Cells were grown at 37°C in a humidified atmosphere (5% or 7% CO2) under standard cell culture conditions. Stable human embryonic kidney (HEK) cell lines expressing recombinant mTRPC4ß (GenBank accession number AAC05178); mTRPC5 (GenBank accession number NM_009428) or hTRPC6 (GenBank accession number AF080394) under the control of a tetracycline-inducible promoter were generated using the Flp-In T-Rex (FITR) system (Invitrogen, Karlsruhe, Germany). TRPC4/5/6 HEK-FITR cells were maintained in Dulbecco's modified eagle medium (DMEM, with glutaMAX I, 4.5 g/l glucose and […] sodium pyruvate) supplemented with 10% (v/v) fetal bovine serum (Biochrom, Berlin, Germany), 1 mM glutamine, 1 mM MEM sodium pyruvate, 40 μg/ml hygromycin (50 μg/ml for mTRPC5 HEK-FITR cells), and 15 μg/ml blasticidine HCl. Channel expression was induced by supplementing the growth medium for 18-24 h with 1 μg/ml doxycycline. Cells grown to an almost confluent monolayer on black poly-D-lysine coated 96-well plates (Greiner, Frickenhausen, Germany) were washed with standard extracellular solution (140 mM NaCl, 1 mM MgCl2, 5.4 mM KCl, 2 mM CaCl2, 10 mM HEPES, 10 mM glucose, pH 7.35) and stained (30 min, room temperature) with dye solution (2 μM fluo-4 AM, 0.02% pluronic F127, 0.1% bovine serum albumin in standard extracellular solution). Cells were washed and either incubated with standard extracellular solution only or with different concentrations of test compounds for 10 min. Fluo-4 fluorescence was excited at 488 nm with an argon laser and measured using a fluorometric imaging plate reader (Molecular Devices, Sunnyvale, USA). All fluorometric measurements were performed at room temperature. […] Baseline fluorescence in non-OAG-stimulated cells and OAG-stimulated Ca^2+ influx into control cells not treated with inhibitors were defined as 0% and 100% influx, respectively. For statistical analysis, analysis of variance was performed with Origin 6.0 software (Microcal Software Inc., Northampton, USA). […] Averaged data is expressed as means ± SEM.

Effect on TRPC6-mediated Ca2+ entry (hTRPC6; 30 µM pre-incubation, OAG-induced) | IC50 (hTRPC6) | Hill slope n, inhibition of TRPC6-mediated Ca2+ entry (hTRPC6) | SMILES | Reduction of AVP-induced receptor-operated cation currents (A7r5 cells) [%]
significantly reduced | 3 to 5 µM and 5.2 µM | 0.97 | C#C[C@]1(OC(C)=O)CC[C@H]2[C@@H]3CCC4=CC(=NO)CC[C@@H]4[C@H]3CC[C@@]21CC (mixture of isomers) [norgestimate] | 86.5±6.0
– | 18 µM | 1.2 | CC(=O)[C@H]1CC[C@H]2[C@@H]3CCC4=CC(=O)CC[C@]4(C)[C@H]3CC[C@]12C [progesterone] | –
